This test has as its target T1, Toll-like receptor 9 (Mus musculus, UniProt Q9EQU3).
T1 sequence (Q9EQU3 whole entry): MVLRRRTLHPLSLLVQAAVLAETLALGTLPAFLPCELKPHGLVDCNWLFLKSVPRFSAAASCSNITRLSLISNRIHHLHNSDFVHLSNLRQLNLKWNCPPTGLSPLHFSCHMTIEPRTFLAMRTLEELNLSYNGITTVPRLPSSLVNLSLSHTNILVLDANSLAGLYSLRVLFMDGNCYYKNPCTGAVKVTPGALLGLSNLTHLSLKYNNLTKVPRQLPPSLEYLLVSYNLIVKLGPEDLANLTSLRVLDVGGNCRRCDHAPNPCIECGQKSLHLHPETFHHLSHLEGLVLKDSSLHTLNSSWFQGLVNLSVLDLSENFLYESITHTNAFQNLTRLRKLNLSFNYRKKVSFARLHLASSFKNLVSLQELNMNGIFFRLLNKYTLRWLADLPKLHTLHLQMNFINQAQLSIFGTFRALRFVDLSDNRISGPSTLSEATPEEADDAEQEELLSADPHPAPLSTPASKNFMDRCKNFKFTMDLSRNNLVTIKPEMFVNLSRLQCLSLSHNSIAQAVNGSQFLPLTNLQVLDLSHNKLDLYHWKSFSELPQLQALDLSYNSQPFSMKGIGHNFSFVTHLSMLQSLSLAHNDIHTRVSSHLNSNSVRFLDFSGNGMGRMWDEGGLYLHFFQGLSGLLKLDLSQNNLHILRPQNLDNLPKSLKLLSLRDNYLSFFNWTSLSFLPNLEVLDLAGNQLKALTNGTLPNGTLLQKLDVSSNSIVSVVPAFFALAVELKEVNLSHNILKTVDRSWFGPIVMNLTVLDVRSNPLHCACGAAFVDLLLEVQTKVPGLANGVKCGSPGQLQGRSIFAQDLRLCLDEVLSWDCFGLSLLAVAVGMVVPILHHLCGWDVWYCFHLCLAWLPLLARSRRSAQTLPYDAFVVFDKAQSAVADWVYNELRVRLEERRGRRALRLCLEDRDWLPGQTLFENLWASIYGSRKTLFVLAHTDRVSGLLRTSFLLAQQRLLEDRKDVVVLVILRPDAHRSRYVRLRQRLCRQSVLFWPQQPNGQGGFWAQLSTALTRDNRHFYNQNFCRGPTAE
As to the kind of experiment: Antagonist activity at TLR9 in mouse Whole blood cell assessed as reduction in IFN-alpha level measured after 20 hrs by AlphaLISA method. Type of test: tissue-based. (In Alpha technology, singlet oxygen from a donor bead excites a nearby acceptor bead.)

By IC50 is commonly meant the concentration needed to halve the response being measured.

With `Cc1cc(N2CCc3c(c(C)nn3CC34CCC(NC(=O)[C@@H]5COCCN5)(CC3)CC4)C2)c2cnn(C)c2n1` [MHV-370], the IC50 was greater than 10 µM.

(Values after ChEMBL document CHEMBL5360657, “Discovery of the TLR7/8 Antagonist MHV370 for Treatment of Systemic Autoimmune Diseases” (ACS Med Chem Lett, 2023).)
